Here are results for two compounds from ChEMBL document CHEMBL1268925 (J Med Chem, 2010).

This experiment addresses T1, Dihydrofolate reductase (Bacillus anthracis, UniProt Q81R22).
T1 sequence (Q81R22 whole entry): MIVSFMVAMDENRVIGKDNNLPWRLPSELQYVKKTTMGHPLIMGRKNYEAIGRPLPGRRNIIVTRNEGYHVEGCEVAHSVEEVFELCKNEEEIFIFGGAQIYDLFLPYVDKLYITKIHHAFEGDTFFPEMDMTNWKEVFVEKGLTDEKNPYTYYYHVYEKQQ

Consider `COc1cc(C(C)(C)C#Cc2c(C)nc(N)nc2N)cc(OC)c1OC`, for which the IC50 turned out to be 12.7 µM and the affinity, expressed as Ki, was 4.28 µM.

Consider `CCc1nc(N)nc(N)c1C#CCc1cc(OC)ccc1-c1ccccc1`, for which the IC50 was 7.7 µM and the Ki is 2.59 µM.

Usually IC50 stands for the concentration that gives 50% inhibition. Lower therefore signals greater potency. In general, Ki refers to a dissociation constant, usually derived from enzyme kinetics or from competition with a known ligand. Higher therefore signals lower affinity.
